Results from ChEMBL document CHEMBL1201862, “PubChem BioAssay data set” (2004).
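Cells were grown in 96-well plates and exposed to each compound for 48 hours at five concentrations; endpoints were interpolated linearly between bracketing concentrations, or set to the highest concentration if not reached. GI50: concentration for 50% inhibition of growth.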 Calls of active or inactive are those of the source. Rule as the data show it: active = GI50 up to about 1.1 µM and inactive = higher.

Columns and labels:
Experiment in all cases: NCI-60 cell line screen, 48 h
[1] = system: OVCAR-8
[2] = system: OVCAR-3
[3] = system: NCI-H460
[4] = system: ACHN
[5] = system: HCT-116
[6] = system: A549
[7] = system: Malme-3M
[8] = system: HCC 2998
[9] = system: OVCAR-4
[10] = system: SK-MEL-5
[11] = system: M14
[12] = system: NCI-H522
[13] = system: HCT-15
[14] = system: SN12C
[15] = system: UO-31
[16] = system: SK-MEL-2
[17] = system: SF-268
[18] = system: UACC-257
[19] = system: SK-OV-3

Row | SMILES | GI50 [1] | GI50 [2] | GI50 [3] | GI50 [4] | GI50 [5] | GI50 [6] | GI50 [7] | GI50 [8] | GI50 [9] | GI50 [10] | GI50 [11] | GI50 [12] | GI50 [13] | GI50 [14] | GI50 [15] | GI50 [16] | GI50 [17] | GI50 [18] | GI50 [19]
1 | CN(CCN(C)C(=O)CCn1cc(F)c(=O)[nH]c1=O)C(=O)CCn1cc(F)c(=O)[nH]c1=O | > 100 µM (inactive) | > 100 µM (inactive) | > 100 µM (inactive) | > 100 µM (inactive) | > 100 µM (inactive) | > 100 µM (inactive) | > 100 µM (inactive) | > 100 µM (inactive) | > 100 µM (inactive) | > 100 µM (inactive) | > 100 µM (inactive) | 3.16 µM (inactive) | > 100 µM | > 100 µM (inactive) | > 100 µM (inactive) | > 100 µM (inactive) | > 100 µM (inactive) |  | 
2 | COC(=O)[C@@H]1CSC(=S)N1C(=O)C[C@H]1CC=CC[C@H]1CC(=O)Sc1ccccc1 | 21 µM (inactive) | 19.2 µM (inactive) | 17.7 µM (inactive) | 17.6 µM (inactive) | 16.1 µM (inactive) | 17.7 µM (inactive) | 21.5 µM (inactive) | 17.9 µM (inactive) | > 10 µM (inactive) |  | 16.7 µM (inactive) | 12 µM (inactive) | 16.2 µM | 15.7 µM (inactive) | 13.8 µM (inactive) | 22.2 µM (inactive) | 15.1 µM (inactive) | 18.5 µM (inactive) | 27.8 µM (inactive)
3 | Nc1nc(=O)c(/N=N/c2ccccc2)c(N)[nH]1 | 43.5 µM (inactive) | 71.8 µM (inactive) | 24.6 µM (inactive) | 27.4 µM (inactive) | 16.1 µM (inactive) | 29.9 µM (inactive) | 15.3 µM (inactive) | 38.4 µM (inactive) | > 100 µM (inactive) | 51.8 µM (inactive) | 28 µM (inactive) | 47.4 µM (inactive) | 30.5 µM | 52.7 µM (inactive) | 42.4 µM (inactive) | 39.2 µM (inactive) | 28.1 µM (inactive) | 56.9 µM (inactive) | 60.3 µM (inactive)
4 | O=C1CC2CCN(C(=O)c3ccccc3)CC2CCN1.O=C1CCC2CC(C(=O)c3ccccc3)CCC2CN1 (stereo not given) | > 100 µM (inactive) | > 100 µM (inactive) | > 100 µM (inactive) | > 100 µM (inactive) | > 100 µM (inactive) | > 100 µM (inactive) | > 100 µM (inactive) | > 100 µM (inactive) | > 100 µM (inactive) | 42.6 µM (inactive) | > 100 µM (inactive) | > 100 µM (inactive) | > 100 µM | > 100 µM (inactive) | > 100 µM (inactive) | > 100 µM (inactive) | > 100 µM (inactive) | > 100 µM (inactive) | > 100 µM (inactive)
5 | O=C(N/C(=C\c1ccc2c(c1)OCO2)c1nc2ccccc2[nH]1)c1ccccc1 | 37 µM (inactive) | 24.7 µM (inactive) | 34.8 µM (inactive) | 33.3 µM (inactive) | 31.3 µM (inactive) | 35.2 µM (inactive) | 34.2 µM (inactive) | 27.7 µM (inactive) | 19.7 µM (inactive) | 16 µM (inactive) | 25.1 µM (inactive) | 14.7 µM (inactive) | 35.6 µM | 30.2 µM (inactive) | 24.6 µM (inactive) | 26.4 µM (inactive) | 38.2 µM (inactive) | 19.6 µM (inactive) | 35.6 µM (inactive)
6 | N#CCC(=O)N/N=C(/C(=O)Nc1ccccc1)C1C(=O)N(c2ccccc2)N=C1N (stereo not given) | > 100 µM (inactive) | > 100 µM (inactive) | > 100 µM (inactive) | > 100 µM (inactive) | > 100 µM (inactive) | > 100 µM (inactive) | > 100 µM (inactive) | > 100 µM (inactive) | > 100 µM (inactive) | > 100 µM (inactive) | > 100 µM (inactive) | > 100 µM (inactive) | > 100 µM | > 100 µM (inactive) | > 100 µM (inactive) | > 100 µM (inactive) | > 100 µM (inactive) | > 100 µM (inactive) | > 100 µM (inactive)
7 | N#Cc1nc(Nc2ccc(Cl)cc2)sc1N | 16.7 µM (inactive) | 17.8 µM (inactive) | 16.4 µM (inactive) | 3.86 µM (inactive) | 6.44 µM (inactive) | 10.7 µM (inactive) | 11.6 µM (inactive) | 6.87 µM (inactive) | 24 µM (inactive) | 2.61 µM (inactive) | 23.6 µM (inactive) | 3.01 µM (inactive) | 7.18 µM | 4.54 µM (inactive) | 3.62 µM (inactive) | 15.1 µM (inactive) | 5.47 µM (inactive) | 10.2 µM (inactive) | 21.5 µM (inactive)
